Like-named read-outs stand apart in the source and are kept apart here.
Legend:
Assay type in all cases: in vivo
weeds = experiment: Control effect and synergistic effect of the mixture of (i) and (ii), postemergence (Gowing method); conditions: postemergence, 20 days after treatment
Source text: Wherein, in the formula, X represented the fresh weight inhibition rate of the active ingredient A in a dosage of P, and Y represented the fresh weight inhibition rate of the active ingredient B in a dosage of Q. The statistic results are shown in Table 6.

Amaranthus retroflexus = experiment: Post-emergence test, weed control effect; conditions: Dose 3000 g/ha, after 3 weeks
Outline: (§1)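 Scores use a 0 (no effect) to 10 (dead) scale of fresh-weight inhibition, assessed 3 weeks after spraying. Treatment was at the 2-3 leaf stage, 2-3 weeks post-sowing, using acetone/Tween-80/water solutions with 80% vegetable oil methyl ester synergist at 1500 g/ha.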

Veronica polita = experiment: Post-emergence test, weed control effect; conditions: Dose 3000 g/ha, after 3 weeks
Outline: as §1

Chenopodiaceae = experiment: Post-emergence test, weed control effect; conditions: Dose 3000 g/ha, after 3 weeks
Outline: as §1

Rorippa indica = experiment: Post-emergence test, weed control effect; conditions: Dose 3000 g/ha, after 3 weeks
Outline: as §1

CC(C)CCCCCOC(=O)COc1ccc(Cl)cc1Cl [2,4-D iso-octyl ester]
Inhibitory effect of component (ii) when applied alone at same dose (weeds; Sisymbrium sophia, 50 g a.i./ha): 40%

O=C(O)CCCOc1ccc(Cl)cc1Cl [2,4-DB]
Inhibitory effect of component (ii) when applied alone at same dose (weeds; Sisymbrium sophia, 200 g a.i./ha): 50%

Cc1cc(Cl)ccc1OC(C)C(=O)O (stereo not shown) [2-methyl 4-chlorophenoxypropionic acid]
Inhibitory effect of component (ii) when applied alone at same dose (weeds; Sisymbrium sophia, 100 g a.i./ha): 30%

CCC(Oc1ccc(F)c(C(F)(F)F)c1)C(=O)NCc1ccccc1 (stereo not shown) [Beflubutamid]
Inhibitory effect of component (ii) when applied alone at same dose (weeds; Abutilon theophrasti, 200 g a.i./ha): 40%

CS(=O)(=O)c1ccc(C(=O)C2=C(Sc3ccccc3)C3CCC(C3)C2=O)c(Cl)c1 (stereo not shown) [Benzobicyclon]
Inhibitory effect of component (ii) when applied alone at same dose (weeds; Abutilon theophrasti, 150 g a.i./ha): 50%

Cc1ccc(C(=O)COc2c(C(=O)c3ccc(Cl)c(C)c3Cl)c(C)nn2C)cc1 [Benzofenap]
pest or weed control at 150 g/ha (weeds; post-emergence, 480 h, Abutilon theophrasti, 150 g a.i./ha, read-out: Inhibitory effect of component (ii) when applied alone at same dose): 40%

CCn1ncc(C(=O)c2ccc(S(C)(=O)=O)c(COCC(F)(F)F)c2Cl)c1OC(=O)c1cn(C)nc1C [Benzuofucaotong]
Inhibitory effect of component (ii) when applied alone at same dose (weeds; Abutilon theophrasti, 15 g a.i./ha): 40%

O=C(O)c1nc(Cl)ccc1Cl [Clopyralid]
pest or weed control at 50 g/ha (weeds; post-emergence, 480 h, Galinsoga parviflora, 50 g a.i./ha, read-out: Inhibitory effect of component (ii) when applied alone at same dose): 40%

Oc1cc(C(F)(F)F)nnc1-c1cnc(Cl)c(F)c1 [Compound 1006]
weed control effect (activity level), Amaranthus retroflexus (Amaranthus retroflexus): 10
weed control effect (activity level), Veronica polita (Veronica polita): 10
weed control effect (activity level), Chenopodiaceae (Chenopodiaceae): 10
weed control effect (activity level), Rorippa indica (Rorippa indica): 10

Oc1cc(C(F)(F)F)nnc1-c1cnc(Cl)cc1F [Compound 1007]
weed control effect (activity level), Amaranthus retroflexus (Amaranthus retroflexus): 10
weed control effect (activity level), Veronica polita (Veronica polita): 10
weed control effect (activity level), Chenopodiaceae (Chenopodiaceae): 10
weed control effect (activity level), Rorippa indica (Rorippa indica): 10

Oc1cc(C(F)(F)F)nnc1-c1cncc(Cl)c1F [Compound 1008]
weed control effect (activity level), Amaranthus retroflexus (Amaranthus retroflexus): 10
weed control effect (activity level), Veronica polita (Veronica polita): 10
weed control effect (activity level), Chenopodiaceae (Chenopodiaceae): 10
weed control effect (activity level), Rorippa indica (Rorippa indica): 10

Cc1cc(Cl)ncc1-c1nnc(C(F)(F)F)cc1O [Compound 1018]
weed control effect (activity level), Amaranthus retroflexus (Amaranthus retroflexus): 10
weed control effect (activity level), Veronica polita (Veronica polita): 10
weed control effect (activity level), Chenopodiaceae (Chenopodiaceae): 10
weed control effect (activity level), Rorippa indica (Rorippa indica): 10

Oc1cc(CF)nnc1-c1cccnc1F [Compound 1076]
weed control effect (activity level), Amaranthus retroflexus (Amaranthus retroflexus): 10
weed control effect (activity level), Veronica polita (Veronica polita): 10
weed control effect (activity level), Chenopodiaceae (Chenopodiaceae): 10
weed control effect (activity level), Rorippa indica (Rorippa indica): 10

Oc1cc(C(F)(F)F)nnc1-c1ccc2c(c1)OC(F)(F)O2 [Compound 1286]
weed control effect (activity level), Amaranthus retroflexus (Amaranthus retroflexus): 10
weed control effect (activity level), Veronica polita (Veronica polita): 10
weed control effect (activity level), Chenopodiaceae (Chenopodiaceae): 10
weed control effect (activity level), Rorippa indica (Rorippa indica): 10

CC(C)=Cc1nnc(C(F)(F)F)cc1O [Compound 1523]
weed control effect (activity level), Amaranthus retroflexus (Amaranthus retroflexus): 10
weed control effect (activity level), Veronica polita (Veronica polita): 10
weed control effect (activity level), Chenopodiaceae (Chenopodiaceae): 10
weed control effect (activity level), Rorippa indica (Rorippa indica): 10

COc1c(Cl)ccc(Cl)c1C(=O)O [Dicamba]
pest or weed control at 10 g/ha (weeds; Descurainia sophia, post-emergence, 480 h, Sisymbrium sophia, 10 g a.i./ha, read-out: Inhibitory effect of component (ii) when applied alone at same dose): 30%

CC(Oc1ccc(Cl)cc1Cl)C(=O)O (stereo not shown) [Dichlorprop]
pest or weed control at 100 g/ha (weeds; Descurainia sophia, post-emergence, 480 h, Sisymbrium sophia, 100 g a.i./ha, read-out: Inhibitory effect of component (ii) when applied alone at same dose): 40%

O=C(Nc1ccc(F)cc1F)c1cccnc1Oc1cccc(C(F)(F)F)c1 [Diflufenican]
pest or weed control at 100 g/ha (weeds; post-emergence, 480 h, Veronica polita, 100 g a.i./ha, read-out: Inhibitory effect of component (ii) when applied alone at same dose): 45%

COc1c(Cl)ccc(-c2nc(C(=O)OCc3ccccc3)c(Cl)c(N)c2F)c1F [Florpyrauxifen-benzyl]
Inhibitory effect of component (ii) when applied alone at same dose (weeds; Abutilon theophrasti, 2 g a.i./ha): 45%
